Entries after “also recorded” stand apart in the source; their conditions may differ.
How the values were obtained:
UT189 = assay: Copper mediated cytotoxicity assay, wild type strain; assay type: cell-based, E. coli; conditions: for effect on viability: 20 μM alone, no copper; for effect on copper (II) sulfate toxicity: exogenous addition of 20 μM
Experimental: (§1) Following overnight growth in 50 mL M63 minimal media, bacterial cultures were washed twice in phosphate buffered saline (PBS, Sigma) and centrifuged at 6,500 rpm. Washed cultures were resuspended in fresh M63 minimal media, and normalized to 10^8 CFU/mL for subsequent treatment. Normalized cultures were treated with varying concentrations of copper (II) sulfate and test agent in 2 mL reaction volumes in 6-well tissue culture plates. Samples were incubated for 20 hours at 37° C. with shaking. Bacterial viability was reported as the number of colony forming units per milliliter of the reaction volume post-treatment (CFU/mL).

[1] = Free copper (I) determination with bathocuproine; conditions: for reduction of copper (II) to copper (I): 20 μM reductant, 17.5 μM copper (II) sulfate
Experimental: Free copper (I) was determined spectrophotometrically using the copper (I) indicator bathocuproine. Briefly, 25 μM bathocuproine, 25 μM apo-yersiniabactin, and 17.5 μM copper (II) sulfate, were used in combination in order-of-addition experiments, as well as alone as controls in PBS. Either 20 μM enterobactin (Sigma) or its catecholate moiety, 2,3-dihydroxybenzoic acid (DHB) were added as bioreductants. Following a 30 minute room temperature incubation, 25 μM bathocuproine was added and copper (I) levels were determined by measuring the visible absorbance at 480 nm of the cuprous-bathocuproine complex. Final concentrations of copper (I) were determined by comparison to a standard curve.

RAW264.7 macrophages = conditions: 25 mM DPI, data not shown
[2] = Superoxide dismutase (SOD) activity, xanthine/xanthine oxidase WST-1 formazan assay; assay type: biochemical; conditions: for superoxide dismutase activity (in words) / SOD activity, percentage inhibition rate: WST-formazan assay, no added protein; for superoxide dismutase activity in the presence of protein: 1.0 mg/mL bovine serum albumin
Experimental: Reduction of WST-1 was monitored at 440 nm in a final volume of 100 μL. One unit of activity was defined as the amount of compound which blocked 50% WST-1 reduction under these conditions. […] To determine whether SOD activity is retained in the presence of protein, these experiments were repeated in the presence of 1.0 mg/mL bovine serum albumin (Sigma).

[3] = tested on: E. coli clinical isolates; assay: Antimicrobial susceptibility of clinical isolates by disk diffusion; assay type: cell-based; conditions: for resistant clinical isolates: 337 bacteriuric inpatient clinical isolates
Excerpt: The samples were collected as part of a Washington University Institutional Review Board-approved prospective study of patients with E. coli bacteriuria (>5×10^4 colony forming units per milliliter) described by Marschall et al.^11 Strains without associated blood culture data were not excluded from this study. Briefly, clinical isolates were collected from male and female patients with significant bacteriuria. Bacterial DNA was extracted using a QIAamp DNA mini kit (Qiagen, Valencia, Calif.). DNA probes for virulence genes were conducted as previously described^11, and the presence of these genes was determined by dot-blot hybridization using a microarray system as described elsewhere (Table 1). E. coli phylogenetic group was determined from hybridization results using the triple genotyping method of Clermont et al.^25 Antimicrobial susceptibility was determined using disk diffusion tests. Bacteriuria was defined as? 5×10^4 colony forming units (CFU)/mL in non-catheterized patients and ≧5×10^3 CFU/mL in catheterized patients, as well as by using the patients' documented urinary symptoms. Pyelonephritis was defined as the presence of flank pain and tenderness and/or fever; sepsis and sepsis-induced hypotension were defined using established clinical criteria. The Microbiology Laboratory at Barnes Jewish Hospital provided clinical antibiogram data.

[4] = UV-Vis spectroscopy of metal interaction; assay type: physicochemical; conditions: purified HPTT with Fe (III) and Cu (II)
Excerpt: At this point, it had been confirmed that HPTT is detectable in vivo in a model UPEC strain that makes yersiniabactin. FIG. 24 confirms that HPTT is detected in wildtype UT189 but not UT189 strains comprising deletions in the yersiniabactin synthesis pathway (ybtS and ybtE). Given that HPTT is being secreted outside the cell and that it is made in relatively high abundance, we wanted to see if HPTT could be performing a specific function for the bacteria, and not simply a transient intermediate along the way to Ybt (FIG. 24). Given that its structure is similar to yersiniabactin, a siderophore, we hypothesized that it could interact with metals. Using solid phase extraction and HPLC, HPTT was purified to homogeneity with no contaminants, as detectable by HPLC. The purified compound was used to look for interactions with iron and copper by UV-Vis spectroscopy.

UTI89ΔybtS = assay: Copper mediated cytotoxicity assay, yersiniabactin-deficient strain; assay type: cell-based, E. coli
Experimental: as §1

[5] = tested on: urinary pathogenic E. coli strain; assay: In vitro growth of urinary pathogenic E. coli strain; assay type: cell-based; conditions: at levels that inhibit yersiniabactin biosynthesis
Excerpt: (§2) The ability of PAS to inhibit yersiniabactin biosynthesis in a urinary pathogenic E. coli strain was examined.

[6] = tested on: yersiniabactin biosynthesis; assay: Inhibition of yersiniabactin biosynthesis in a urinary pathogenic E. coli strain; assay type: cell-based
Excerpt: as §2

## O=C(N[C@H]1COC(=O)[C@@H](NC(=O)c2cccc(O)c2O)COC(=O)[C@@H](NC(=O)c2cccc(O)c2O)COC1=O)c1cccc(O)c1O [enterobactin]
UT189
  effect on viability: minimal effect
  effect on copper (II) sulfate toxicity: enhances copper (II) sulfate toxicity
[1]
  reduction of copper (II) to copper (I): 84.7%

## c1ccc2c(c1)[I+]c1ccccc1-2 [DPI, Diphenyleneiodonium]
RAW264.7 macrophages
  oxidative-burst activity: decreased oxidative-burst activity to background levels
  phagocytosis: without any gross defect in phagocytosis

## O=C(O)c1cccc(O)c1O [DHB, 2,3-dihydroxybenzoic acid]
UT189
  effect on viability: minimal effect
  effect on copper (II) sulfate toxicity: enhances copper (II) sulfate toxicity
[1]
  reduction of copper (II) to copper (I): 93.1%

## bovine Cu/Zn SOD: bovine Cu/Zn superoxide dismutase used as a standard (Sigma S-7571)
[2]
  superoxide dismutase activity (in words): completely inhibited superoxide anion formation

## trimethoprim-sulfamethoxazole [TMP/S]
[3]
  resistant clinical isolates: 29%
[3]; listed as trimethoprim/sulfamethoxazole (TMP/S)
  resistant clinical isolates: 96 (29) total (%)
[3]; fyuA+iroN siderophore genotype (CI community 3, BC 1+3)
  susceptibility: highly susceptible
[3]; fyuA+iucD strategists (CI community 2, BC 1+2)
  association with phenotypic resistance: moderately with TMP/S resistance

## CC(C)(C1=N[C@@](C)(C(=O)O)CS1)[C@H](O)[C@@H]1CSC([C@H]2CSC(c3ccccc3O)=N2)[N-]1.[Fe] (stereo partly drawn) [ferric complexes of yersiniabactin]
[2]
  SOD activity, percentage inhibition rate: 41.4%
  superoxide dismutase activity (in words): demonstrated SOD-like activity

## hydroxphenyl-thiazolinyl-thaizolinyl [HPTT]
[4]
  UV-Vis spectra in the presence of metal: red-shifted

## O=S(=O)([O-])[O-].[Cu+2] [copper sulfate, copper (II) sulfate]
UT189; 10 μM copper (II) sulfate alone
  reduction of viable colonies: 2.5 log
UTI89ΔybtS; 10 μM copper sulfate alone
  decrease in bacterial viability: > 3 log CFU/mL
[2]
  superoxide dismutase activity in the presence of protein: suppressed
  SOD activity, percentage inhibition rate: 33.8%
  superoxide dismutase activity (in words): did not demonstrate any superoxide dismutase like activity

## CC(C)(C1=N[C@@](C)(C(=O)O)CS1)[C@H](O)[C@@H]1CSC([C@H]2CSC(c3ccccc3O)=N2)N1 (stereo partly drawn) [apo-yersiniabactin]
UTI89ΔybtS; added in 1.5-fold molar excess over copper (II) sulfate
  cytoprotection from copper toxicity: restores growth to untreated wild type levels
UTI89ΔybtS; in the absence of copper
  effect on bacterial viability: negligible effect
UTI89ΔybtS; purified apo-Ybt added with 10 μM copper sulfate
  decrease in viable cells compared to wild type: 0.024 log
[1]; apo-Ybt added before enterobactin or DHB, listed as Apo-yersiniabactin
  copper (I) bathocuproine signal: prevents catechol-dependent reduction
[1]; apo-Ybt added before enterobactin or DHB, listed as apo-Ybt
  copper (I) bathocuproine signal: almost completely blocked
[1]; enterobactin or DHB added before apo-Ybt
  copper (I) bathocuproine signal: restored the copper (I) signal
[2]
  superoxide dismutase activity (in words): did not demonstrate superoxide dismutase activity and not

## Nc1ccc(C(=O)O)c(O)c1 [PAS, Para-aminosalicylic acid]
[5]
  inhibition of in vitro growth: did not inhibit in vitro growth; also recorded: without inhibiting growth
[6]
  inhibition of yersiniabactin biosynthesis: selectively inhibits yersiniabactin biosynthesis

## copper (II)-salicylate
[2]
  superoxide dismutase activity in the presence of protein: suppressed; also recorded: quenched
  SOD activity, percentage inhibition rate: 61.6%

## [Cl][Fe]([Cl])[Cl] [ferric chloride]
[2]
  superoxide dismutase activity (in words): did not demonstrate any superoxide dismutase like activity

From patent US9551021B2, “Methods and compositions for detecting pathogenic bacteria” (Washington University, priority 2012, dated 2017)
